One block for each molecule: values may come before it.
Tests used:
[1] = target: T1, reverse transcriptase of Rous sarcoma virus (Rous sarcoma virus - Prague C, UniProt P03354); assay: Inhibition of reverse transcriptase activity in RSV particles (3H-thymidine triphosphate incorporation); type: biochemical; conditions: for inhibition at 400 µg/mL: 400 μg/ml., read-out: Percent Inhibition
T1 construct: alpha/beta heterodimer cut from Gag-Pol polyprotein; 3H-TTP incorporation
Method: Inhibition was directly related to drug concentration. […] Reverse transcriptase activities were measured from the incorporation of ^3 H-thymidine triphosphate into trichloroacetic acid insoluble counts according to a published method (Nature, 227, 563 (1970). The drug was dissolved in dimethylsulfoxide at a concentration of 10 mg./ml. ##SPC3##
Degrees of the inhibition are listed below in Table 1.

Rous sarcoma virus [2] = assay: Blocking of transformation (focus formation) of chick embryonic fibroblasts by Rous sarcoma virus in tissue culture; type: cell-based
Method: In tissue culture, the effect of 9-0-methyloximinyl erythromycin A on the blocking of transformation of chick embryonic fibroblasts by Rous sarcoma virus is shown in Table 2. […] The assay was carried out according to a published method (J. Gen. Virol. I, 85 (1970).

Rous sarcoma virus [3] = assay: Mortality of chicks infected intra-abdominally with Rous sarcoma virus; type: in vivo, chickens; conditions: for Probability (Fisher's exact probability for proportions): Virus + Drug I vs Virus; for Alive / Dead: Virus + Drug I, 200 mg./kg. by gavage every other day, 25 birds per group
Text: (§1) To test the effectiveness of the present compounds, 12-day-old Cofal negative chicks were used. The chicks were purchased from SPAFA as 8-day-old embryonated eggs for the tests and comparison of the effectiveness of the inhibitors of the present invention. The chicks were divided into four groups of 25 birds per group:
(§2) Group 1 - Drug I control (9-0-methyloximinyl erythromycin A;
Group 2 - Drug I + Rous sarcoma virus (RSV);
Group 3 - Rous sarcoma virus (infection control);
Group 4 - Normal control (sham media)
(§3) The medication with the virus and drug combinations was started by gavage two days before the chicks were infected with the virus. The chickens treated with Drug I, 9-0-methyloximinyl erythromycin A, received 200 mg./kg. every other day for the entire 35 days of the experiment. Each week the chickens were weighed and the drug level was adjusted to accommodate the new weight.
On the third day the chickens in Groups 2 and 3 were infected intra-abdominally with Rous sarcoma virus (RSV). The inoculum received by each bird was 0.2 ml. and contained approximately 100,000 viral particles. Group 4 received a sham inoculation of 0.2 ml. of sterile tissue culture media.
(§4) The chickens were observed daily for the 35 days that the experiment was allowed to continue.
(§5) On the last day, the 35th day, all surviving chickens were sacrificed, weighed and autopsied.
The results of the experiment are provided in Table 3 which provides the following results: "Statistical Evaluation of Mortality of the Chickens".

[4] = Drug control group: mortality of uninfected chicks given drug; type: in vivo, chickens; conditions: Drug I control, 200 mg./kg. by gavage every other day, 25 birds
Text: as §1, §2, §3, §4, §5

[5] = period 4 after infection (period = 6 days)
[6] = period 5 after infection (period = 6 days)
[7] = period 6 after infection (period = 6 days)

T1 sequence (P03354 709-1567): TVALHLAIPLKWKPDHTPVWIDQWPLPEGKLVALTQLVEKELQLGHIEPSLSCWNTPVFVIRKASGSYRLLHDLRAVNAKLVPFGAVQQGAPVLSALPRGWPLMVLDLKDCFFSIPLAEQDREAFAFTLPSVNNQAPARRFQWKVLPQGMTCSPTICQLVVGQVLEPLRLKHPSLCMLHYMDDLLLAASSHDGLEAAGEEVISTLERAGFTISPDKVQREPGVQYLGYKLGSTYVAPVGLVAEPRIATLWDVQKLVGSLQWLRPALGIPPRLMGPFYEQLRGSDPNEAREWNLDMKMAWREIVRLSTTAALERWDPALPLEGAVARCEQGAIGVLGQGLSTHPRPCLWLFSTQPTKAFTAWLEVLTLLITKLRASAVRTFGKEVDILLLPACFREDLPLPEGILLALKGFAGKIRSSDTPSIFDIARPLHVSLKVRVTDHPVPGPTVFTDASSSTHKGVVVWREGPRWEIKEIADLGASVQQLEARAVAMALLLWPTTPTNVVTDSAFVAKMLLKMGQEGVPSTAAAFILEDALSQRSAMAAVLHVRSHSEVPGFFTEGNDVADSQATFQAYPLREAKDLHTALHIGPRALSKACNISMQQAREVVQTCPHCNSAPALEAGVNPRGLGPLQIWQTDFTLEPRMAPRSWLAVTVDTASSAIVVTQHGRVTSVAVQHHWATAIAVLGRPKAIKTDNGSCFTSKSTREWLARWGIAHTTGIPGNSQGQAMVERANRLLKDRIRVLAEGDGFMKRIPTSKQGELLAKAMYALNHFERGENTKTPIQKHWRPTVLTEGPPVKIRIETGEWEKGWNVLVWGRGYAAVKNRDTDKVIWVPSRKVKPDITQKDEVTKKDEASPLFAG

inhibition at 400 µg/mL [1]: 69%
Compound: CC[C@H]1OC(=O)[C@H](C)[C@@H](O[C@H]2C[C@@](C)(OC)[C@@H](O)[C@H](C)O2)[C@H](C)[C@@H](O[C@@H]2O[C@H](C)C[C@H](N(C)C)[C@H]2O)[C@](C)(O)C[C@@H](C)C(=NOCc2ccc(Cl)c(Cl)c2)[C@H](C)[C@@H](O)[C@H]1C [9-O-(3,4-dichlorobenzyloximinyl) erythromycin B]

inhibition at 400 µg/mL [1]: 52%
Compound: CCON=C1[C@H](C)C[C@@](C)(O)[C@H](O[C@@H]2O[C@H](C)C[C@H](N(C)C)[C@H]2O)[C@@H](C)[C@H](O[C@H]2C[C@@](C)(OC)[C@@H](O)[C@H](C)O2)[C@@H](C)C(=O)O[C@H](CC)[C@@](C)(O)[C@H](O)[C@H]1C [9-O-ethyloximinyl erythromycin A]

Compound: CC[C@H]1OC(=O)[C@H](C)[C@@H](O[C@H]2C[C@@](C)(OC)[C@@H](O)[C@H](C)O2)[C@H](C)[C@@H](O[C@@H]2O[C@H](C)C[C@H](N(C)C)[C@H]2O)[C@](C)(O)C[C@@H](C)C(=NOC)[C@H](C)[C@@H](O)[C@]1(C)O [9-O-methyloximinyl erythromycin A]
inhibition at 1 µg/mL (Rous sarcoma virus [2]; Rous sarcoma virus, Fibroblast, Drug Concentration 1 μg/ml): 39% | inhibition at 5 µg/mL (Rous sarcoma virus [2]; Rous sarcoma virus, Fibroblast, Drug Concentration 5 μg/ml): 53% | inhibition at 10 µg/mL (Rous sarcoma virus [2]; Rous sarcoma virus, Fibroblast, Drug Concentration 10 μg/ml): 95% | inhibition of focus formation (Rous sarcoma virus [2]; drug levels of 5-10 μg/ml): at least 50% | tumors in survivors at sacrifice and autopsy (Rous sarcoma virus [3]; RSV-infected birds that received Drug I 200 mg./kg. every other day, 35th day): had tumors in evidence | Probability (Fisher's exact probability for proportions) (Rous sarcoma virus [3]; period 4 after infection): .02 | Probability (Fisher's exact probability for proportions) (Rous sarcoma virus [3]; period 5 after infection): .006 | Probability (Fisher's exact probability for proportions) (Rous sarcoma virus [3]; period 6 after infection): .036 | Alive (Rous sarcoma virus [3]; [5]): 18 | Dead (Rous sarcoma virus [3]; [5]): 7 | Alive (Rous sarcoma virus [3]; [6]): 13 | Dead (Rous sarcoma virus [3]; [6]): 12 | Alive (Rous sarcoma virus [3]; [7]): 8 | Dead (Rous sarcoma virus [3]; [7]): 17 | Alive ([4]; period 4 (period = 6 days)): 25 | Dead ([4]; period 4 (period = 6 days)): 0 | Alive ([4]; period 5 (period = 6 days)): 25 | Dead ([4]; period 5 (period = 6 days)): 0 | Alive ([4]; period 6 (period = 6 days)): 25 | Dead ([4]; period 6 (period = 6 days)): 0 | inhibition at 400 µg/mL [1]: 57% | IC50 ([1]; RSV particles, drug dissolved in dimethylsulfoxide, read-out: Fifty percent inhibition of reverse transcriptase activity (converted)): ~459 µM

inhibition at 400 µg/mL [1]: 47%
Compound: CCCON=C1[C@H](C)C[C@@](C)(O)[C@H](O[C@@H]2O[C@H](C)C[C@H](N(C)C)[C@H]2O)[C@@H](C)[C@H](O[C@H]2C[C@@](C)(OC)[C@@H](O)[C@H](C)O2)[C@@H](C)C(=O)O[C@H](CC)[C@@](C)(O)[C@H](O)[C@H]1C [9-O-propyloximinyl erythromycin A]

Reference: patent publication US3979511A, “Inhibitors of reverse transcriptase enzymes” (Abbott Laboratories, priority 1974, dated 1976)
